# From patent publication US8394829B2, “Bi-functional quinoline analogs” (Gilead Sciences, Inc., priority 2010, dated 2013)
# Columns and labels:
# [1] = biological target: T1, human recombinant beta-2 adrenoreceptors (Homo sapiens, UniProt P07550); experiment: Functional agonism of human recombinant beta-2 adrenoreceptors expressed in CHO cells (cAMP HTRF); type: cell-based; conditions: CHO cells expressing human beta-2 adrenoreceptors, cAMP elevation, 30 min
# T1 construct: expressed in transfected cells; host or cells: CHO cells
# Procedure, shortened: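 CHO cells expressing recombinant receptor incubated with compound for 30 min; intracellular cAMP rise over control read by HTRF. EC50 taken as concentration giving 50% of that compound's own maximal response, with full or partial agonism judged against isoproterenol maximum.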
# Human recombinant PDE4B2 = biological target: T2, Human recombinant PDE4B2 (Homo sapiens, UniProt Q07343); experiment: Inhibition of PDE4B4 enzyme activity (PDE Glo Assay); type: biochemical; conditions: human recombinant PDE4B2, 50 nM cAMP; read-out: PDE4 IC50
# T2 construct: purchased BPS Bioscience
# Procedure, shortened: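 Human recombinant PDE4B2 (0.12 nM) was pre-incubated with compound for 10 min at rt, then 50 nM cAMP was added for 1 hr. After IBMX stop and PKA detection, read-out was Kinase-Glo luminescence. IC50 came from a single-site nonlinear fit of RLU versus concentration.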
# [2] = test system: LPS-induced neutrophil recruitment into the lungs; experiment: Inhibition of LPS-induced neutrophil recruitment into the lungs of Lewis rats; type: in vivo; conditions: intra-tracheal dose of 300 μg/kg, 2 h before LPS aerosol, BAL 4 h post-LPS
# Experimental: Inhibition of Lipoploysaccharide (LPS)-Induced Neutrophil Recruitment into the Lungs of Lewis Rats
# Rats were anesthetized with 4% isoflurane, placed in the supine position at an angle of 30°, the mouth opened and the trachea exposed. A 22-gauge needle with a syringe attached was introduced into the trachea and test compound in suspension (200 μl volume per 400 g) was delivered into the lungs from approximately one centimeter above the carina. The rats were allowed to recover and two hrs later conscious animals were placed into a chamber and exposed to aerosolized LPS (1.0 mg/mL) at a rate of 3.0 L/min for 20 min. Rats were euthanized 4 h post-LPS exposure by an overdose of pentobarbital (90 mg/kg) by intra-peritoneal injection. […] The supernatant was discarded, the cells were re-suspended in PBS and total cell counts were determined based on a 10 μl sample of re-suspended cells stained with trypan blue and counts performed using a Countess® cell counter (Invitrogen). […] Manual eye counting was performed to determine the percentage number of cells in the cytospun sample (determined as macrophages, neutrophils, eosinophils, T-lymphocytes and eosinophils) and these values were used to determine the total number of each cell type per sample. Typically experiments contained a minimum of six rats per experimental group and the mean±SEM number of neutrophils was determined for each group. […]
# [3] = test system: LPS-induced TNF-α release from human peripheral blood mononuclear cells (PBMC); experiment: Inhibition of LPS-induced TNF-α release from human PBMC; type: cell-based; conditions: LPS 0.4 ng/mL, 6 h, presence or absence of ICI-118551 not given
# Procedure, shortened: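 Ficoll-purified primary PBMC, 100,000 cells/well, pre-incubated 30 min ± 10 μM ICI-118551 (± gives PDE4-only vs PDE4 plus beta-2 activity), then compound 1 h at 37 °C (0.1% DMSO). Stimulated with 0.4 ng/mL LPS for 6 h; supernatant TNF-α by bead cytokine assay; IC50 from single-site fit.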
# [4] = biological target: T1, human recombinant beta-2 adrenoreceptors; experiment: Beta-2 adrenoceptor binding assay ([3H](−)CGP-12177 displacement); conditions: CHO cells expressing human beta-2 adrenoreceptors, [3H](−)CGP-12177 0.3 nM, 120 min
# Procedure, shortened: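 Displacement of [3H](−)CGP-12177 (0.3 nM) from human recombinant beta-2 receptors expressed in CHO cells, measured after 120 min incubation with test compound. Bound radioligand counted by scintillation; IC50 taken from concentration-response curves as 50% of each compound's maximal inhibition.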
# T1 sequence (P07550 whole entry): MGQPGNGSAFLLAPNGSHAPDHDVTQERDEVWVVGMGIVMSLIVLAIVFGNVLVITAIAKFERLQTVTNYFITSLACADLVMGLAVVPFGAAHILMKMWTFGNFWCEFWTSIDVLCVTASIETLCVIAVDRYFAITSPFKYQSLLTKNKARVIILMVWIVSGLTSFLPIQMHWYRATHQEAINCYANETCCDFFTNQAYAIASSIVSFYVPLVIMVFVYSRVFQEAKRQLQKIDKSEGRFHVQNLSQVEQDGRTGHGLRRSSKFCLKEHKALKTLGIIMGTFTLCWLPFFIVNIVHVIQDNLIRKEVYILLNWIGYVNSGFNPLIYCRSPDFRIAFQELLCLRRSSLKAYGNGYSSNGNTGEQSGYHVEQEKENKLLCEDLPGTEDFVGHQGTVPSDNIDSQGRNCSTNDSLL
# T2 sequence (Q07343 1-564 isoform Q07343-2): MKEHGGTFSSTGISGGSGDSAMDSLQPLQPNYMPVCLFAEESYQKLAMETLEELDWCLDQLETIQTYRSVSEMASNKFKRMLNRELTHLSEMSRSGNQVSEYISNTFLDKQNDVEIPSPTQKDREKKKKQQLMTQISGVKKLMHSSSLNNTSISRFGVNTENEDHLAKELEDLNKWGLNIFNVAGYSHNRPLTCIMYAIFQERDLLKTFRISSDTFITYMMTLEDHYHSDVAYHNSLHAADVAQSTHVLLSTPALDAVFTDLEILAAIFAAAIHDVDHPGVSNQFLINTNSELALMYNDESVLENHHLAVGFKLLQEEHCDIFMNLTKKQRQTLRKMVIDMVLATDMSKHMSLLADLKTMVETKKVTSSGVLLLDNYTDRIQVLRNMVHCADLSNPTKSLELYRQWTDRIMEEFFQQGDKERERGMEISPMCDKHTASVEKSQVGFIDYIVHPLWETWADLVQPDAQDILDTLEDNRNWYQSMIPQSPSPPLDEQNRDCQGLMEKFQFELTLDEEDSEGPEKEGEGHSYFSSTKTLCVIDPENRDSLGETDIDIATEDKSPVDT
smiles,measurement,setting,value
"COc1cccc(Nc2c(C(N)=O)cnc3c(C)cc(S(=O)(=O)c4cccc(C(=O)Nc5ccc(CCCCCNC[C@H](O)c6ccc(O)c(CO)c6)cc5)c4)cc23)c1 [Example 26, (R)-6-[[3-[[4-[5-[[2-Hydroxy-2-[4-hydroxy-3-(hydroxymethyl)phenyl]ethyl]amino]pentyl]phenyl]carbamoyl]phenyl]sulfonyl]-4-[(3-methoxyphenyl)amino]-8-methylquinoline-3-carboxamide 2,2,2-trifluoroacetate]",EC50,[1],> 300 nM
same,IC50,Human recombinant PDE4B2,< 100 nM
same,neutrophil inhibition,[2],≤ 40%
same,EC50,[3],< 100 nM
same,IC50,[4],> 300 nM
